Here are results for 2 molecules from ChEMBL document CHEMBL1122983, “Synthesis and dopaminergic activity of (R)- and (S)-4-hydroxy-2-(di-n-propylamino)indan” (J Med Chem, 1985).

The test addresses Dopamine receptor (Homo sapiens) (UniProt P14416+P35462+P21918+P21917+P21728). Particulars: Felis catus.

Description: Inhibition of stimulation-induced tachycardia via the presynaptic dopamine receptors

With `CCCN(CCC)[C@H]1Cc2cccc(O)c2C1`, the ID50 was determined as 720 nM.

In turn, `CCCN(CCC)[C@@H]1Cc2cccc(O)c2C1` returned an ID50 of 7 nM.
